In ChEMBL document CHEMBL4428049, “Design and synthesis of aminothiazole modulators of the gamma-secretase enzyme” (Bioorg Med Chem Lett, 2016):
≈ marks a conversion by molar mass, not a printed value.

Key:
[1] = Kinetic solubility in PBS buffer at pH 7.4 by UV/vis absorbance analysis; assay type: physicochemical; conditions: read-out: Kinetic_solubility
Gamma-secretase = test: Modulation of gamma-secretase in human SH-SY5Y cells overexpressing wild-type human APP751 assessed as inhibition of Abeta42 level after 24 hrs by ELISA; assay type: cell-based
[2] = Modulation of gamma-secretase in CHO cells expressing human APP695 assessed as inhibition of Abeta42 level after 20 hrs by FRET HTS assay; assay type: cell-based; conditions: Cricetulus griseus

Structure (SMILES)	solubility kinetic [1] [µM]	IC50 (Gamma-secretase) [nM]	IC50 [2] [nM]
CCn1nc2c(c1Nc1nc(-c3ccc(-n4cnc(C)c4)c(F)c3)cs1)CCC2(C)C	2.1 (≈ 0.917 µg/mL)	62	–
CCCn1nc2c(c1Nc1nc(-c3ccc(-n4cnc(C)c4)c(F)c3)cs1)CCCC2	–	148	–
Cc1cn(-c2ccc(-c3csc(Nc4[nH]nc5c4CCCC5)n3)cc2F)cn1	–	> 1000	–
Cc1cn(-c2ccc(-c3csc(Nc4c5c(nn4C4CCC4)CCC5)n3)cc2F)cn1	< 1.6	92	–
Cc1cn(-c2ccc(-c3csc(Nc4c5c(nn4CCO)CCCC5)n3)cc2F)cn1	15 (≈ 6.58 µg/mL)	362	–
CCc1cc(Nc2nc(-c3ccc(-n4cnc(C)c4)c(F)c3)cs2)c(C)cc1C	–	–	10
Cc1cn(-c2ccc(-c3csc(Nc4cc(C(C)(C)C)nn4CC(F)(F)F)n3)cc2F)cn1	< 1.6	87	–
Cc1cn(-c2ccc(-c3csc(Nc4c5c(nn4C4CCC4)CCCC5)n3)cc2F)cn1	< 1.6	112	–
CCCn1nc(C(C)(C)C)cc1Nc1nc(-c2ccc(-n3cnc(C)c3)c(F)c2)cs1	< 1.6	86	–
CCn1nc(C2(C)CC2)cc1Nc1nc(-c2ccc(-n3cnc(C)c3)c(F)c2)cs1	< 1.6	67	–
Cc1cn(-c2ccc(-c3csc(Nc4c5c(nn4CCN4CCCCC4)CCCC5)n3)cc2F)cn1	8.1 (≈ 4.1 µg/mL)	475	–
Cc1cn(-c2ccc(-c3csc(Nc4c5c(nn4C4CCOC4)CCCC5)n3)cc2F)cn1 (stereo not drawn)	–	289	–
Cc1cn(-c2ccc(-c3csc(Nc4cc(C(C)(C)C)nn4C(C)C)n3)cc2F)cn1	–	87	–
Cc1cn(-c2ccc(-c3csc(Nc4c5c(nn4CC(C)(C)O)CCCC5)n3)cc2F)cn1	< 1.6	55	–
Cc1cn(-c2ccc(-c3csc(Nc4c5c(nn4C)CCCC5)n3)cc2F)cn1	–	208	–
Cc1cn(-c2ccc(-c3csc(Nc4c5c(nn4CCCO)CCCC5)n3)cc2F)cn1	–	229	–
Cc1cn(-c2ccc(-c3csc(Nc4c5c(nn4CCF)CCCC5)n3)cc2F)cn1	–	110	–
CCn1nc2c(c1Nc1nc(-c3ccc(-n4cnc(C)c4)c(F)c3)cs1)C(C)CC2(C)C (stereo not drawn)	2.6 (≈ 1.17 µg/mL)	49	–
Cc1cn(-c2ccc(-c3csc(Nc4cc(C(F)(F)F)nn4CC(F)(F)F)n3)cc2F)cn1	–	771	–
CCn1nc2c(c1N(C)c1nc(-c3ccc(-n4cnc(C)c4)c(F)c3)cs1)CCCC2	–	> 1000	–
CCn1nc(C(C)C)cc1Nc1nc(-c2ccc(-n3cnc(C)c3)c(F)c2)cs1	–	394	–
Cc1cn(-c2ccc(-c3csc(Nc4c5c(nn4CCO)CCC5)n3)cc2F)cn1	< 1.6	> 1000	–
